Results as given in US20200023001A1, “GlycoFix (Structurally And Functionally Repaired Endothelial Glycocalyx)” (Northeastern University, priority 2018, published 2020).
Where “and” joins values, the source holds several entries; their conditions need not be identical. Equal values may be shown once.

System: Cx43 at RFPEC borders
Assay: Cx43 expression at EC borders, immunostaining and confocal microscopy
Type: cell-based, rat
Procedure: Cell Culture. Rat fat pad ECs (RFPEC) at passages 20 to 39 were offspring of cells isolated from rat epididymal fat pad and provided by Dr. Mia Thi of Albert Einstein College of Medicine (Bronx, N.Y.). […] The RFPECs are immortalized, making it possible to use late passages. RFPEC were seeded on 12-14-mm diameter and 0.13-0.17-mm thick glass coverslips at a seeding density of 15,000-20,000 cells/cm^2. Cells were cultured in Dulbecco's Modified Eagle Medium (DMEM, Invitrogen, USA) with 1% penicillin-streptomycin (PS) and 10% fetal bovine serum (FBS, Gibco Life Technologies). Cells were maintained in humidity at 37° C. and 5% CO2. RFPECs reached full confluence in 3 days.
Cultured RFPECs produce thick and robust GCX in this time period. At 3 days post-seeding the RFPECs' culture medium was supplemented with 1% BSA in place of FBS to stabilize the GCX during preservation and immunolabeling (described below). For enzyme treatment experiments, 25 micro-international units per milliliter (μIU/ml) of heparinase III (Hep III; IBEX, Canada) were added to BSA-containing culture media for 2 hours to degrade HS from the GCX [46]. HepIII was washed out, and the wash-out was followed by a 16-hour incubation of RFPECs in regular BSA-containing media. In self-recovery experiments, RFPEC GCX was left to recover for 24 hours after enzyme degradation. The time frame was chosen in accordance with the 20-hour time period that is required for HS restoration to occur on the surface of ECs. For HS recovery experiments, exogenous HS and/or S1P were applied for 16 hours to accommodate the communication test as an assessment of functional glycocalyx recovery. […] After HS was degraded with HepIII, it was replaced by a 16-hour feeding of RFPECs with 59 μg/ml exogenous porcine mucosal HS (Celsus, Cincinnati, Ohio), based on published serum concentration of HS [43]. In sphingosine-1-phosphate experiments, culture media containing enzyme was substituted for media containing either 10 μM of S1P (Sigma-Aldrich) or a combination of 59 μg/ml of HS and 10 μM of S1P for 16 hours after enzyme degradation.
As specified by the manufacturer, the HS antibody reacts with many types of heparan sulfate. The reactivity of the HS antibody is abolished after treatment with Hep III, indicating antibody specificity. For secondary detection of HS, Alexa Flour 488 conjugated goat anti-mouse IgG/IgM (H+L; Life Technologies) secondary antibody was used. RFPECs to be processed for connexin 43 (Cx43) were fixed in 4% paraformaldehyde, permeabilized in 0.2% Triton X-100 (Fisher), and blocked in 5% goat serum combined with 0.2% Triton X-100. Connexin 43 staining was performed overnight at 4° C. with 1:100 mouse monoclonal Cx43 antibody (Millipore). […] Secondary Cx43 detection was done with Alexa Flour 488 conjugated goat anti-mouse IgG. […] These controls confirmed that the staining observed in the RFPECs is not an artefact.
Confocal immunofluorescence microscopy imaging and analysis. Alexa Fluor 488 fluorescent RFPECs were mounted with Vectashield containing DAPI (Vector Labs) and imaged with a Zeiss LSM 700 laser scanning confocal microscope. HS and Cx43 were imaged at 63× magnification (oil objective) and 40× magnification (oil objective), respectively. Lasers with excitation wavelengths of 490 nm (for HS or Cx43) and 350 nm (for DAPI) were used to obtain XY-plane slices. Laser gain and transmission were kept below fluorophore saturation levels. Confocal slice intervals were 0.2 μm for HS and 0.7 μm for Cx43. […]

heparan sulfate [HS]
Cx43 distribution along the perimeter of the cells (RFPEC, Hep III, then 16 h with or without 59 μg/ml HS and/or 10 μM S1P, mean±SEM): 46% and 46.45±4.21% | Cx43 distribution/expression, result in words (FIG. 3 legend) (after Hep III, HS 59 μg/ml, S1P 10 μM): partially restored | Cx43 recovery at cell borders, % of baseline conditions (treatment after enzymatic HS degradation): approximately 80%
